# Like-named read-outs stand apart in the source and are kept apart here.
# Assays:
# [1] = test system: BaF3 (EGFR L858R/T790M/C797S); assay: Cell proliferation IC50 assay (Cell Titer GLO), BaF3 LTC cells; assay type: cell-based; details: Mus musculus, Ba/F3 EGFR, Table 6, 72 h
# Procedure: (§1) IC50 of compounds in the present invention was determined by Cell Titer GLO reagent from Promega. The procedures are as follows:
# (§2) Tumor cells were cultured in specified medium in an incubator at 37° C. and 5% CO2. The cells were passaged periodically. Cells at the logarithmic growth phase were collected for plating at a density of 2000-4000 cells/well. The next day, the compounds of the present invention were serially diluted and added to the cells, with DMSO being the negative control and the culture media without cells being the blank control. The plate was incubated in the incubator for 72 h. The cell viability assay was performed by adding the detection reagents to the cell culture media according to Cell Titer GLO reagent instructions and detecting luminescent signals on an EnVision microplate reader (PerkinElmer).
# (§3) Inhibition of cell growth by the compounds of the present invention was plotted by Prism Graphpad software for statistically calculating the IC50 of the compound of the present invention.
# BaF3 (EGFR Del19/C797S) = biological target: T1, BaF3 (EGFR Del19/C797S) (Homo sapiens, UniProt P00533, C797S, cells depend on it, form not given); assay: Cell proliferation IC50 assay (Cell Titer GLO), BaF3 DC cells; assay type: cell-based, mouse; details: Table 6, 72 h
# T1 construct: BaF3 (EGFR Del19/C797S)|DC|RPMI1640 + 10% FBS
# Procedure: as §1, §2, §3
# BaF3 (EGFR WT) = assay: Cell proliferation IC50 assay (Cell Titer GLO), BaF3 WT cells; assay type: cell-based; details: Mus musculus, Ba/F3 EGFR, Table 6, 10 ng/ml EGF, 72 h
# Procedure: as §1, §2, §3
# A431 = assay: Cell proliferation IC50 assay (Cell Titer GLO), A431 cells; assay type: cell-based; details: Homo sapiens
# Procedure: as §1, §2, §3
# [2] = A-431, Table 6, A431, 72 h, read-out: A431 IC50
# T1 sequence (P00533 with tags, fused parts or gaps DEL746-750/C797S, form open): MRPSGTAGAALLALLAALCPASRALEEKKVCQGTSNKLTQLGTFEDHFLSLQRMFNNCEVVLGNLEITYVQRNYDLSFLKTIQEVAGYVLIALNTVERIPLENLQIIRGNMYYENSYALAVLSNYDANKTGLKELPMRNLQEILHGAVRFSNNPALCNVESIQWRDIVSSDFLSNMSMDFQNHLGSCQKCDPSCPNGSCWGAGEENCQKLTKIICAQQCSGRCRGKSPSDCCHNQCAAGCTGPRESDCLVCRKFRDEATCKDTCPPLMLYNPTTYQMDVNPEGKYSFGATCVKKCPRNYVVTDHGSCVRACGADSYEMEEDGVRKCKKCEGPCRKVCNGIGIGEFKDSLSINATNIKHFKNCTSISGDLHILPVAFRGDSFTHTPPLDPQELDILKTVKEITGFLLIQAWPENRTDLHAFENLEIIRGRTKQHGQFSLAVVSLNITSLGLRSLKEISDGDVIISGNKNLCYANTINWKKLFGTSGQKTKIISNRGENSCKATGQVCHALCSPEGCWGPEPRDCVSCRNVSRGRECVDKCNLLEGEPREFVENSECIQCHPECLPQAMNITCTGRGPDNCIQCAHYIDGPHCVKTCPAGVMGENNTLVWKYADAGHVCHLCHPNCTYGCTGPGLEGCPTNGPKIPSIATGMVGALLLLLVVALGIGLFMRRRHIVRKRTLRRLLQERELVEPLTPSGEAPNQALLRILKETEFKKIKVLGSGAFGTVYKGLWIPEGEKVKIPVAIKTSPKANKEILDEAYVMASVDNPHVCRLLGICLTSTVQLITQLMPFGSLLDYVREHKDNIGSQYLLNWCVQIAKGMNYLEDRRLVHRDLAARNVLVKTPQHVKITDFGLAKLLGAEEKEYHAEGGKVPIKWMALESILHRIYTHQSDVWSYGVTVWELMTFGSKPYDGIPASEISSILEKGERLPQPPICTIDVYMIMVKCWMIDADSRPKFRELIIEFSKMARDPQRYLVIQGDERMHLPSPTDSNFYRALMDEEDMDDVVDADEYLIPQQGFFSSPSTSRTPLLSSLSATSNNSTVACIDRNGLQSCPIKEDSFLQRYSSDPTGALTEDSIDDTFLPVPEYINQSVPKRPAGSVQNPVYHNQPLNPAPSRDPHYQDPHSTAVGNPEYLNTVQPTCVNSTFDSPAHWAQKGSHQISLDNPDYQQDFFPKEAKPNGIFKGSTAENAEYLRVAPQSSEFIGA
SMILES,IC50 [1] [nM],IC50 (BaF3 (EGFR Del19/C797S)) [nM],IC50 (BaF3 (EGFR WT)) [nM],IC50 (A431; [2]) [nM],"IC50 (A431; A-431, 72 h, read-out: A431 IC50 (nM)) [nM]"
CCc1cc(Nc2nc(Nc3ccccc3P(C)(C)=O)c3cc[nH]c3n2)c(C(F)(F)F)cc1N1CCC(N2CCN(CCCCOc3cccc4c3CN(C3CCC(=O)NC3=O)C4=O)CC2)CC1 (stereo not shown) [Example E154],3430,446,> 4000,> 4000,–
COc1cc(N2CCC(N3CCN(CCCCOc4cccc5c4CN(C4CCC(=O)NC4=O)C5=O)CC3)CC2)c(CO)cc1Nc1ncc(Cl)c(Nc2ccccc2P(C)(C)=O)n1 (stereo not shown) [Example E127],79.6,8.7,595,1270,–
CCc1cc(Nc2ncc(Cl)c(Nc3ccccc3P(C)(C)=O)n2)cc(C(N)=O)c1N1CCC(N2CCN(CCCCOc3cccc4c3CN(C3CCC(=O)NC3=O)C4=O)CC2)CC1 (stereo not shown) [Example E139],694,60.9,554,963,–
CCc1cc(Nc2ncc(-c3cnn(C)c3)c(Nc3ccccc3P(C)(C)=O)n2)c(OC)cc1N1CCC(N2CCN(CCN(C)c3ccc4c(c3)CN(C3CCC(=O)NC3=O)C4=O)CC2)CC1 (stereo not shown) [Example E224],> 4000,0.9,654,–,> 4000
CCc1cc(Nc2ncc(Cl)c(Nc3ccccc3P(C)(C)=O)n2)c(OC)cc1N1CCC(N2CCN(C3(C#Cc4cccc5c4CN(C4CCC(=O)NC4=O)C5=O)CC3)CC2)CC1 (stereo not shown) [Example E84],85.5,25.4,> 4000,1970,–
CCc1cc(Nc2ncc(Cl)c(Nc3ccccc3P(C)(C)=O)n2)c(OC)cc1N1CCC(N2Cc3ccc(Sc4cccc5c4CN(C4CCC(=O)NC4=O)C5=O)cc3C2)CC1 (stereo not shown) [Example E173],181,21.7,1530,> 4000,–
CCc1cc(Nc2ncc(Cl)c(Nc3ccc4[nH]ncc4c3P(C)(C)=O)n2)c(OC)cc1N1CCC(N2CCN(CCC#Cc3cccc4c3CN(C3CCC(=O)NC3=O)C4=O)CC2)CC1 (stereo not shown) [Example E51],57.8,14,> 4000,1090,–
CCc1cc(Nc2nc(Nc3ccccc3P(C)(C)=O)c3cc[nH]c3n2)c(OC)cc1N1CCC(N2CCN(CCCCOc3cc(F)cc4c3CN(C3CCC(=O)NC3=O)C4=O)CC2)CC1 (stereo not shown) [Example E141],50.3,14.7,> 4000,> 4000,–
CCc1cc(Nc2ncc(C(=O)OC(C)C)c(Nc3ccccc3P(C)(C)=O)n2)c(OC)cc1N1CCC(N2CCN(CCCCOc3cccc4c3CN(C3CCC(=O)NC3=O)C4=O)CC2)CC1 (stereo not shown) [Example E105],2060,10.5,1490,1970,–
CCc1cc(Nc2ncc(Cl)c(Nc3ccccc3P(C)(C)=O)n2)c(OC)cc1N1CCC(N2CCN(CCC#Cc3c(F)ccc4c3CN(C3CCC(=O)NC3=O)C4=O)CC2)CC1 (stereo not shown) [Example E54],51.4,20.3,353,1180,–
CCc1cc(Nc2ncc(Cl)c(Nc3ccccc3P(C)(C)=O)n2)c(OC)cc1N1CCC(N2CCC3(CC(Oc4ccc5c(c4)CN(C4CCC(=O)NC4=O)C5=O)C3)C2)CC1 (stereo not shown) [Example E187],50.3,19.5,815,1460,–
CCc1cc(Nc2ncc(-c3cnn(C)c3)c(Nc3ccccc3P(C)(C)=O)n2)c(OC)cc1N1CCC(N2CCN(Cc3ccc4c(c3)CN(C3CCC(=O)NC3=O)C4=O)CC2)CC1 (stereo not shown) [Example E217],> 4000,0.9,623,> 4000,–
CCc1cc(Nc2ncc(-c3cc[nH]n3)c(Nc3ccccc3P(C)(C)=O)n2)c(OC)cc1N1CCC(N2CCN(CCOc3cccc4c3CN(C3CCC(=O)NC3=O)C4=O)CC2)CC1 (stereo not shown) [Example E164],> 4000,7.7,> 4000,> 4000,–
CCc1cc(Nc2ncc(Cl)c(Nc3ccccc3P(C)(C)=O)n2)c(OC)cc1N1CCC2(CCN(C(=O)COc3cccc4c3CN(C3CCC(=O)NC3=O)C4=O)CC2)CC1 (stereo not shown) [Example E104],43.8,9.1,2270,> 4000,–
CCc1cc(Nc2nc(Nc3ccccc3P(C)(C)=O)c3cc[nH]c3n2)c(OC)cc1N1CCC(N2CCN(CCCCOc3cccc4c3CN(C3CCC(=O)NC3=O)C4=O)CC2)CC1 (stereo not shown) [Example E64],41.5,11.7,> 4000,> 4000,–
CCc1cc(Nc2ncc(Cl)c(Nc3ccccc3P(C)(C)=O)n2)c(OC)cc1N1CCC(N2CCc3ccc(Oc4cccc5c4CN(C4CCC(=O)NC4=O)C5=O)cc3C2)CC1 (stereo not shown) [Example E76],147,30.1,> 4000,> 4000,–
CCc1cc(Nc2ncc(-c3cc(C)n[nH]3)c(Nc3ccccc3P(C)(C)=O)n2)c(OC)cc1N1CCC(N2CCN(CCOc3ccc4c(c3)CN(C3CCC(=O)NC3=O)C4=O)CC2)CC1 (stereo not shown) [Example E192],> 4000,43.8,> 4000,> 4000,–
CCc1cc(Nc2ncc(Cl)c(Nc3ccccc3P(C)(C)=O)n2)c(OC)cc1N1CCC(N2CCN(C3(/C=C\c4cccc5c4CN(C4CCC(=O)NC4=O)C5=O)CC3)CC2)CC1 (stereo not shown) [Example E85],53,13.7,1880,1370,–
CCc1cc(Nc2ncc(Cl)c(Nc3ccccc3P(C)(C)=O)n2)c(OC)cc1N1CCC(N2CCN(CCNc3cccc4c3C(=O)N(C3CCC(=O)NC3=O)C4=O)CC2)CC1 (stereo not shown) [Example E106],226,16.8,> 4000,1370,–
CCc1cc(Nc2ncc(-c3cnn(C)c3)c(Nc3ccccc3P(C)(C)=O)n2)c(OC)cc1N1CCC(N2Cc3ccc(Oc4cccc5c4CN(C4CCC(=O)NC4=O)C5=O)cc3C2)CC1 (stereo not shown) [Example E172],> 4000,2.4,1070,> 4000,–
CCc1cc(Nc2ncc(Cl)c(Nc3ccccc3P(C)(C)=O)n2)c(OC)cc1N1CCC(N2Cc3cc(Oc4cccc5c4CN(C4CCC(=O)NC4=O)C5=O)ccc3C2=O)CC1 (stereo not shown) [Example E211],59.2,–,3300,> 4000,–
CCc1cc(Nc2ncc(-c3cnn(C)c3)c(Nc3ccccc3P(C)(C)=O)n2)c(OC)cc1N1CCC(N2CCN(CCOc3cc(F)cc4c3CN(C3CCC(=O)NC3=O)C4=O)CC2)CC1 (stereo not shown) [Example E194],> 4000,0.5,535,1360,–
CCc1cc(Nc2ncc(Cl)c(Nc3ccccc3P(C)(C)=O)n2)c(OC)cc1N1CCC(N2CCN(CCCCOc3ccc4c(c3F)CN(C3CCC(=O)NC3=O)C4=O)CC2)CC1 (stereo not shown) [Example E59],67.1,22.7,1320,1440,–
CCc1cc(Nc2ncc(-n3cc(C)cn3)c(Nc3ccccc3P(C)(C)=O)n2)c(OC)cc1N1CCC(N2CCN(CCOc3ccc4c(c3)CN(C3CCC(=O)NC3=O)C4=O)CC2)CC1 (stereo not shown) [Example E68],> 4000,18.6,> 4000,> 4000,–
CCc1cc(Nc2ncc(Cl)c(Nc3ccccc3P(C)(C)=O)n2)c(OC)nc1N1CCC(N2CCN(CCC#Cc3cccc4c3CN(C3CCC(=O)NC3=O)C4=O)CC2)CC1 (stereo not shown) [Example E41],44.4,8.2,≥ 1060,2240,–
CCc1cc(Nc2ncc(-c3cnn(C)c3)c(Nc3ccccc3P(C)(C)=O)n2)c(OC)cc1N1CCC(N2CCN([C@H]3C[C@H](Oc4cc(F)cc5c4CN(C4CCC(=O)NC4=O)C5=O)C3)CC2)CC1 (stereo partly shown) [Example E222],89.7,< 0.24,133,> 4000,–
